Laboratory results taken from the NIST ThermoML archive (doi:10.1021/je049626l).
“And” between values parts separate entries of the source, which are not always exact repeats. Equal entries are not always repeated. Numbers after ± are expanded uncertainties.

Columns and labels:
[1] = molar enthalpy of vaporization or sublimation; conditions: Liquid, DSC
[2] = Crystal; for Normal melting temperature: DTA

O=C(O)COc1ccc(Cl)cc1Cl [2,4-dichlorophenoxyethanoic acid]
molar enthalpy ([1]; 479.1 K): 76 ± 4 kJ/mol | molar enthalpy ([1]; 489.5 K): 76 ± 6 kJ/mol | molar enthalpy ([1]; 503.3 K): 77 ± 5 kJ/mol | vapor or sublimation pressure ([2]; 346 K): 8.48e-05 ± 2e-05 kPa | vapor or sublimation pressure ([2]; 348 K): 0.000157 ± 1.9e-05 kPa | vapor or sublimation pressure ([2]; 348.5 K): 0.000127 ± 3.3e-05 kPa | vapor or sublimation pressure ([2]; 351 K): 0.00017 ± 4.6e-05 kPa | vapor or sublimation pressure ([2]; 351.5 K): 0.000127 ± 2.5e-05 kPa | vapor or sublimation pressure ([2]; 352 K): 0.000212 ± 4.5e-05 kPa | vapor or sublimation pressure ([2]; 353 K): 0.000255 ± 2.8e-05 kPa and 0.000314 ± 3.3e-05 kPa | vapor or sublimation pressure ([2]; 354.5 K): 0.000276 ± 4e-05 kPa and 0.000212 ± 3.6e-05 kPa | vapor or sublimation pressure ([2]; 357 K): 0.000472 ± 0.0001 kPa | vapor or sublimation pressure ([2]; 357.5 K): 0.000382 ± 8.6e-05 kPa | vapor or sublimation pressure ([2]; 358 K): 0.000318 ± 3.3e-05 kPa | vapor or sublimation pressure ([2]; 358.5 K): 0.000382 ± 4.8e-05 kPa | vapor or sublimation pressure ([2]; 360 K): 0.000445 ± 5.1e-05 kPa and 0.000629 ± 7.4e-05 kPa | vapor or sublimation pressure ([2]; 360.5 K): 0.000488 ± 7.2e-05 kPa | vapor or sublimation pressure ([2]; 361 K): 0.000551 ± 7e-05 kPa | vapor or sublimation pressure ([2]; 361.5 K): 0.000573 ± 5.8e-05 kPa | vapor or sublimation pressure ([2]; 362.5 K): 0.000573 ± 7.1e-05 kPa | vapor or sublimation pressure ([2]; 363 K): 0.000721 ± 8.9e-05 kPa and 0.000679 ± 8.7e-05 kPa | vapor or sublimation pressure ([2]; 364.5 K): 0.000806 ± 9.1e-05 kPa | vapor or sublimation pressure ([2]; 365.5 K): 0.000933 ± 0.00011 kPa and 0.00126 ± 0.00028 kPa | vapor or sublimation pressure ([2]; 366 K): 0.000976 ± 0.00011 kPa and 0.000848 ± 0.00012 kPa | vapor or sublimation pressure ([2]; 369 K): 0.00132 ± 0.00028 kPa and 0.0014 ± 0.00031 kPa and 0.0011 ± 0.00023 kPa | vapor or sublimation pressure ([2]; 370 K): 0.00136 ± 0.0003 kPa and 0.00204 ± 0.00048 kPa | vapor or sublimation pressure ([2]; 370.5 K): 0.00153 ± 0.00038 kPa | vapor or sublimation pressure ([2]; 371 K): 0.0017 ± 0.00038 kPa | vapor or sublimation pressure ([2]; 373 K): 0.00174 ± 0.00041 kPa | vapor or sublimation pressure ([2]; 374 K): 0.00255 ± 0.00065 kPa | vapor or sublimation pressure ([2]; 375 K): 0.00255 ± 0.00062 kPa and 0.00212 ± 0.0005 kPa | vapor or sublimation pressure ([2]; 375.5 K): 0.00229 ± 0.00056 kPa | vapor or sublimation pressure ([2]; 377 K): 0.00297 ± 0.00075 kPa | vapor or sublimation pressure ([2]; 378 K): 0.00293 ± 0.00074 kPa and 0.00481 ± 0.0013 kPa | vapor or sublimation pressure ([2]; 379 K): 0.00361 ± 0.00094 kPa | vapor or sublimation pressure ([2]; 379.5 K): 0.00344 ± 0.00088 kPa | vapor or sublimation pressure ([2]; 380.5 K): 0.00386 ± 0.001 kPa | vapor or sublimation pressure ([2]; 383.5 K): 0.00509 ± 0.0015 kPa | vapor or sublimation pressure ([2]; 385 K): 0.00594 ± 0.0018 kPa | vapor or sublimation pressure ([2]; 386 K): 0.00628 ± 0.0018 kPa | vapor or sublimation pressure ([2]; 387 K): 0.0067 ± 0.0019 kPa | Normal melting temperature [2]: 141.4 ± 0.5 °C

CC(Oc1ccc(Cl)cc1Cl)C(=O)O (configuration not stated) [2-(2,4-dichlorophenoxy)propanoic acid]
molar enthalpy ([1]; 466.7 K): 76 ± 6 kJ/mol | molar enthalpy ([1]; 474 K): 76 ± 6 kJ/mol | molar enthalpy ([1]; 477.9 K): 76 ± 5 kJ/mol | vapor or sublimation pressure ([2]; 343 K): 0.000157 ± 2.1e-05 kPa | vapor or sublimation pressure ([2]; 347 K): 0.000267 ± 3.5e-05 kPa and 0.000297 ± 3.7e-05 kPa | vapor or sublimation pressure ([2]; 352 K): 0.000551 ± 6e-05 kPa | vapor or sublimation pressure ([2]; 353 K): 0.000503 ± 5.9e-05 kPa | vapor or sublimation pressure ([2]; 356 K): 0.000764 ± 8.4e-05 kPa and 0.000708 ± 7.9e-05 kPa | vapor or sublimation pressure ([2]; 358 K): 0.000849 ± 8.8e-05 kPa | vapor or sublimation pressure ([2]; 359 K): 0.000912 ± 0.00014 kPa | vapor or sublimation pressure ([2]; 360 K): 0.00126 ± 0.00028 kPa | vapor or sublimation pressure ([2]; 361 K): 0.00126 ± 0.0003 kPa and 0.00153 ± 0.00036 kPa | vapor or sublimation pressure ([2]; 364 K): 0.00223 ± 0.00054 kPa | vapor or sublimation pressure ([2]; 365 K): 0.00208 ± 0.00049 kPa | vapor or sublimation pressure ([2]; 366 K): 0.00252 ± 0.00066 kPa and 0.00339 ± 0.00089 kPa | vapor or sublimation pressure ([2]; 368 K): 0.00361 ± 0.00095 kPa | vapor or sublimation pressure ([2]; 370 K): 0.00445 ± 0.0012 kPa | vapor or sublimation pressure ([2]; 371 K): 0.00481 ± 0.0013 kPa | vapor or sublimation pressure ([2]; 372 K): 0.00472 ± 0.0013 kPa | vapor or sublimation pressure ([2]; 374 K): 0.00721 ± 0.0021 kPa | vapor or sublimation pressure ([2]; 375 K): 0.00692 ± 0.002 kPa | Normal melting temperature [2]: 116.6 ± 0.5 °C

O=C(O)CCCOc1ccc(Cl)cc1Cl [4-(2,4-dichlorophenoxy)butanoic acid]
molar enthalpy ([1]; 485.7 K): 81 ± 9 kJ/mol | molar enthalpy ([1]; 495 K): 81 ± 10 kJ/mol | molar enthalpy ([1]; 501.1 K): 81 ± 9 kJ/mol | vapor or sublimation pressure ([2]; 356.5 K): 8.48e-05 ± 1.1e-05 kPa | vapor or sublimation pressure ([2]; 358 K): 0.000106 ± 1.3e-05 kPa | vapor or sublimation pressure ([2]; 359.5 K): 0.000127 ± 1.6e-05 kPa | vapor or sublimation pressure ([2]; 360 K): 0.000148 ± 1.6e-05 kPa and 0.000157 ± 1.7e-05 kPa | vapor or sublimation pressure ([2]; 361 K): 0.000148 ± 1.6e-05 kPa | vapor or sublimation pressure ([2]; 361.5 K): 0.00017 ± 2.2e-05 kPa | vapor or sublimation pressure ([2]; 362.5 K): 0.000191 ± 2.3e-05 kPa | vapor or sublimation pressure ([2]; 363 K): 0.000212 ± 2.4e-05 kPa and 0.000252 ± 2.7e-05 kPa | vapor or sublimation pressure ([2]; 363.5 K): 0.000212 ± 2.3e-05 kPa and 0.000233 ± 2.5e-05 kPa | vapor or sublimation pressure ([2]; 365.5 K): 0.000255 ± 2.9e-05 kPa | vapor or sublimation pressure ([2]; 366.5 K): 0.000297 ± 4e-05 kPa | vapor or sublimation pressure ([2]; 367 K): 0.000339 ± 5.2e-05 kPa | vapor or sublimation pressure ([2]; 367.5 K): 0.000377 ± 4.3e-05 kPa | vapor or sublimation pressure ([2]; 368 K): 0.000382 ± 5e-05 kPa | vapor or sublimation pressure ([2]; 369 K): 0.000467 ± 5.3e-05 kPa | vapor or sublimation pressure ([2]; 369.5 K): 0.000445 ± 4.6e-05 kPa | vapor or sublimation pressure ([2]; 370 K): 0.000488 ± 7.4e-05 kPa and 0.000467 ± 7.4e-05 kPa | vapor or sublimation pressure ([2]; 372 K): 0.000721 ± 8.4e-05 kPa | vapor or sublimation pressure ([2]; 372.5 K): 0.000679 ± 7.1e-05 kPa and 0.000636 ± 6.7e-05 kPa | vapor or sublimation pressure ([2]; 373 K): 0.000764 ± 8.6e-05 kPa and 0.000786 ± 8.7e-05 kPa | vapor or sublimation pressure ([2]; 374 K): 0.000806 ± 9.1e-05 kPa | vapor or sublimation pressure ([2]; 375 K): 0.000933 ± 0.0001 kPa and 0.00106 ± 0.00022 kPa | vapor or sublimation pressure ([2]; 377 K): 0.00106 ± 0.00022 kPa and 0.00123 ± 0.00026 kPa | vapor or sublimation pressure ([2]; 377.5 K): 0.00123 ± 0.0003 kPa | vapor or sublimation pressure ([2]; 378 K): 0.00138 ± 0.0003 kPa and 0.0017 ± 0.00038 kPa | vapor or sublimation pressure ([2]; 380 K): 0.00161 ± 0.00038 kPa | vapor or sublimation pressure ([2]; 381 K): 0.00229 ± 0.00056 kPa | vapor or sublimation pressure ([2]; 382 K): 0.00221 ± 0.00055 kPa | vapor or sublimation pressure ([2]; 383 K): 0.00297 ± 0.00076 kPa and 0.00283 ± 0.00072 kPa | vapor or sublimation pressure ([2]; 384 K): 0.00297 ± 0.00075 kPa | vapor or sublimation pressure ([2]; 386 K): 0.00369 ± 0.00096 kPa and 0.0044 ± 0.0012 kPa | vapor or sublimation pressure ([2]; 386.5 K): 0.00365 ± 0.001 kPa | vapor or sublimation pressure ([2]; 387 K): 0.00458 ± 0.0013 kPa | vapor or sublimation pressure ([2]; 389 K): 0.00539 ± 0.0015 kPa | vapor or sublimation pressure ([2]; 389.5 K): 0.00526 ± 0.0015 kPa | vapor or sublimation pressure ([2]; 391 K): 0.0067 ± 0.0019 kPa and 0.00666 ± 0.0019 kPa | Normal melting temperature [2]: 120.1 ± 0.5 °C

COC(=O)CCCOc1ccc(Cl)cc1Cl [butanoic acid, 4-(2,4-dichlorophenoxy)-, methyl ester]
molar enthalpy ([1]; 456 K): 66 ± 6 kJ/mol | molar enthalpy ([1]; 463.4 K): 68 ± 7 kJ/mol | molar enthalpy ([1]; 469.8 K): 68 ± 6 kJ/mol | Normal melting temperature [2]: 35.0 ± 0.5 °C

COC(=O)COc1ccc(Cl)cc1Cl [methyl 2,4-dichlorophenoxyethanoate]
molar enthalpy ([1]; 415.2 K): 59 ± 3 kJ/mol | molar enthalpy ([1]; 424.4 K): 60 ± 3 kJ/mol | molar enthalpy ([1]; 430.4 K): 60 ± 3 kJ/mol | Normal melting temperature [2]: 37.6 ± 0.5 °C
